Measurements taken from US11542240B2, “STK19 inhibitors for treatment of cancer” (TRUSTEES OF BOSTON UNIVERSITY, priority 2018, dated 2023).

Key:
WM2032 cells [1] = type: cell-based, human
Description: (§1) In addition, the inventors investigated the growth inhibitory effects of IV in melanoma cells with different NRAS and BRAF status, including A375 and UACC62 (NRASWT, BRAFV600E), and SK-MEL-2 and WM2032 (NRASQ61R, BRAFWT).
(§2) To further confirm the pharmacological effects of IV derive from STK19 inhibition and not G9a inhibition, the inventors investigated the role of G9a in NRAS signaling activation. G9a was silenced by G9a-specific shRNA or inhibited by a specific inhibitor, A-366, in SK-MEL-2 and WM2032 melanoma cells. […] In summary, ZT-12-037-01 (IV) is a specific STK19-targeted inhibitor to block oncogenic NRAS-driven melanocyte malignant transformation and melanoma growth.

SK-MEL-2 cells = type: cell-based, human
Description: as §1, §2

[2] = system: hTERT/p53DD/CDK4(R24C) melanocytes; experiment: cell proliferation assay of NRASQ61R-expressing immortal melanocytes; type: cell-based, human; details: 3 μM IV
[3] = system: hTERT/p53DD/CDK4(R24C) melanocytes xenograft; experiment: xenograft tumor formation of engineered melanocytes in nude mice; type: in vivo, mouse
Procedure: FIGS. 6B-6D. Growth curve, tumor weight, and dissected tumors for the xenograft experiments with indicated cells inoculated subcutaneously into flanks of nude mice treated with IV. Visible tumors were measured every three days. […] (FIGS. 6E-6G) Growth curve, tumor weight, and dissected tumors for the xenograft experiments with SK-MEL-2 cells inoculated subcutaneously into flanks of nude mice treated with IV. Visible tumors were measured every three days. […] (FIGS. 6H-6I) Effects of IV treatment on in vivo proliferation and apoptosis were evaluated by staining of the sections of tumor collected in G for Ki67 and cleaved caspase-3. The sections were counterstained with DAPI. Data are means±SD (n=7). Representative images were shown. Scale bar, 100 μm.
The inventors also performed immunofluorescence on SK-MEL-2 xenograft tumors to investigate the effects of IV on in vivo proliferation and apoptosis, represented by Ki67 and cleaved caspase-3 staining.

STK19 = STK19 (Homo sapiens (Human), UniProt P49842); experiment: thermal denaturation curve shift of STK19; details: read-out: shift in the melting temperature of STK19
UACC62 cells = experiment: caspase activity assay (apoptosis), 4 days; type: cell-based, human; details: UACC62, 4 days
A375 cells = experiment: caspase activity assay (apoptosis), 4 days; type: cell-based, human; details: A375, 4 days
Description: as §1

WM2032 cells [4] = experiment: caspase activity assay (apoptosis), 4 days; type: cell-based, human; details: WM2032, 4 days
Description: as §1

[5] = tolerability study in C57BL/6J mice (body weight, blood chemistry, H&E histology)
[6] = blood chemistry in tolerability studies

Chain of STK19 (P49842 other isoform, or with tags, fused parts or gaps): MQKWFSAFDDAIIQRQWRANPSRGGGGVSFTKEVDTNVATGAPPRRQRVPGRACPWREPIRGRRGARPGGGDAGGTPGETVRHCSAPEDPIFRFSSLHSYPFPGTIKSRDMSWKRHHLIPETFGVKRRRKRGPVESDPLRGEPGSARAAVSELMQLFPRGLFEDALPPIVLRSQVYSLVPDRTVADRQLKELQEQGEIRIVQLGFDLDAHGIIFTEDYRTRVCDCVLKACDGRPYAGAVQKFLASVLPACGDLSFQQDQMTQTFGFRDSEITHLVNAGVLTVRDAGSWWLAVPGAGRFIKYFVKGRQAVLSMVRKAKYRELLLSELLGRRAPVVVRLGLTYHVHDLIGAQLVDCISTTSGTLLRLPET

COc1cc2nc(NC3CC3)nc(NC3CCN(C(C)C)CC3)c2cc1OC [Formula IV]
NRAS signaling, including MEK-ERK and PI3K pathways (WM2032 cells [1]; WM2032 (NRASQ61R)): effectively inhibited | NRAS phosphorylation and activity (WM2032 cells [1]; WM2032, IV 100 nM and 300 nM): effectively decreased | H3K9 methylation (WM2032 cells [1]; WM2032, IV up to 300 nM): no obvious effects | NRAS signaling, including MEK-ERK and PI3K pathways (SK-MEL-2 cells; SK-MEL-2 (NRASQ61R)): effectively inhibited | NRAS phosphorylation and activity (SK-MEL-2 cells; SK-MEL-2, IV 100 nM and 300 nM): effectively decreased | H3K9 methylation (SK-MEL-2 cells; SK-MEL-2, IV up to 300 nM): no obvious effects | IV-mediated inhibition of oncogenic NRAS signaling after introduction of IV-resistant STK19 V134Y or L139F (SK-MEL-2 cells; SK-MEL-2 cells): rescued | mutant NRAS/STK19-driven melanocyte proliferation [2]: significantly inhibited | mutant NRAS/STK19-driven melanocyte tumor formation [3]: significantly inhibited | ΔTm at 100 µM (STK19): 6.8 °C | apoptosis (UACC62 cells): reduced impact | apoptosis (A375 cells): reduced impact | apoptosis (WM2032 cells [4]): induced apoptosis | serum transaminase levels ([5]; C57BL/6J mice): did not affect | mouse weight ([5]; C57BL/6J mice, 25 mg/kg BID for 15 days): did not affect | histology of mouse tissues ([5]; C57BL/6J mice, 25 mg/kg BID for 15 days, H&E): did not affect | Alanine aminotransferase (ALT) [5, 6]: 27.6 ± 5.6 U/L | Albumin (ALB) [5, 6]: 28.3 ± 2.7 g/L | Alkaline phosphatase (ALP) [5, 6]: 3.9 ± 1.7 U/L | Aspartate aminotransferase (AST) [5, 6]: 54.4 ± 9.4 U/L | Creatinine (CRE) [5, 6]: 17.7 ± 4.2 µmol/L | Lactic dehydrogenase (LDH) [5, 6]: 247.3 ± 41.0 U/L | Phosphorus (P) [5, 6]: 1.67 ± 0.39 | Total bilirubin (T-Bil) [5, 6]: 2.68 ± 0.44 µmol/L | Total protein (TP) [5, 6]: 50.9 ± 2.5 g/L
